System: diarrhea-predominant IBS subjects
Experiment: Study S241.3.011: weekly diary questions on adequate relief
Assay type: in vivo, human
Details: 2 mg TID, ITT; for Number of subjects who were responders during the three-month treatment period: Adequate relief of IBS symptoms / Number of subjects who were responders during the three-month treatment period: Adequate relief of abdominal pain/discomfort / Number of subjects who were responders during the three-month treatment period: Adequate relief of abnormal bowel habits: observed case
Method: Study S241.3.011 was a Phase III, double-blind, placebo-controlled, randomized, multinational study to investigate the safety and efficacy of 2 mg TID of cilansetron for a period of 12 weeks followed by a rerandomized, placebo-controlled four-week treatment period, in diarrhea-predominant IBS subjects. The study was conducted in six countries including the US. A total of 2115 subjects consented to participate, and 770 subjects were randomized. A total of 746 subjects were analyzed for efficacy and 755 subjects were analyzed for safety. Diagnosis and main criteria for inclusion were IBS subjects satisfying the Rome I criteria (1992); the diarrhea predominant sub-population of the Rome II criteria; and a minimum abdominal pain/discomfort, stool frequency and consistency determined during the run-in period. Subjects were treated with cilansetron 2 mg tablets given orally TID or matching placebo tablets given orally TID for 12 weeks followed by a rerandomized, placebo-controlled four-week treatment period.
The primary efficacy parameter was the number of months that a subject was a responder for IBS symptoms (abdominal pain, abdominal discomfort, abnormal bowel habits) over the 12-week treatment period. A responder for a month (monthly responder) was defined as a subject who answered the weekly question with “yes” at least twice for that month. The two main secondary efficacy parameters were the monthly responder rates based on the “adequate relief” questions regarding abdominal pain/discomfort and abnormal bowel habits during the 12-week treatment period. The overall response rate and responder rate for the weekly diary questions on adequate relief at each month and all months, the adequate relief rate, the number of subjects with adequate relief by week, daily diary questions, IBS-QOL scores, and the interruption of activities were also assessed. Safety was evaluated by physical examination, ECG, vital signs, laboratory evaluations, concomitant medications, and AEs.
Subjects who were initially randomized to the cilansetron 2 mg TID group and rerandomized to placebo, will be referred to as the C/P treatment group; subjects initially randomized to the placebo group and rerandomized to placebo will be referred to as the P/P treatment group; the P/C and C/C treatment group nomenclature follow the same principle. Of the 591 subjects who completed the three-month treatment period, 576 subjects were rerandomized and thus divided into the following treatment groups: 150 subjects in the C/C treatment group, 140 subjects in the C/P treatment group, 136 subjects in the P/C treatment group, and 150 subjects in the P/P treatment group. Of the 576 subjects rerandomized, a higher percentage of subjects in the C/C treatment group (99%) completed the study compared with the C/P (95%), P/C (93%), and the P/P (95%) treatment groups.
Studies S24 1.3.OO6, S24 1.3.0 1 1, and S24 1.3.009 used the following efficacy measurements: • The subjects answered the following three questions with “yes” or “no” using a phone diary at the end of each week: • a) During the last week, did you experience adequate relief of your IBS symptoms, such as abdominal pain, abdominal discomfort, abnormal bowel habits? • b) During the last week, did you experience adequate relief of your abdominal pain and/or discomfort? • c) During the last week, did you experience adequate relief of your abnormal bowel habits? • The subjects rated the following symptoms using the phone diary at the end of each day: • abdominal pain/discomfort (five-point scale); • stool consistency (seven-point Bristol Stool Scale); • stool frequency (number of bowel movements each day); • urgency (five-point scale); • straining (yes or no); • feeling of incomplete defecation (yes or no); • bloating or feeling of abdominal distension (five-point scale). • In Studies S241 A006 and S241.3.009, subjects completed the IBS-QOL Survey at Baseline (Day 1) and at the end of treatment. […]

[1] = Duration of IBS: >24 months to ≦48 months, monthly LOCF imputation
[2] = Duration of IBS: >24 months to ≦48 months
[3] = Duration of IBS: >48 months to ≦120 months, monthly LOCF imputation
[4] = Duration of IBS: >48 months to ≦120 months
[5] = Duration of IBS: >120 months, monthly LOCF imputation
[6] = Duration of IBS: ≦24 months, monthly LOCF imputation
[7] = Female subjects, three-month treatment period, monthly LOCF

Which results are given for `Cc1nccn1C[C@H]1CCc2c(c3cccc4c3n2CCC4)C1=O` [Cilansetron, (R)-(−)-4,5,6,8,9,10-hexahydro-10-[(2-methyl-1H-imidazol-1-yl)methyl]-11H-pyrido-[3,2,1-jk]-carbazol-11-one]?
Number of months a subject was a responder during the three-month treatment period: Abnormal bowel habits, Two months [1]: 10 (14) n (%); Number of months a subject was a responder during the three-month treatment period: Abnormal bowel habits, Zero months [1]: 20 (28) n (%); Number of months a subject was a responder during the three-month treatment period: IBS symptoms, One month [1]: 7 (10) n (%); Number of months a subject was a responder during the three-month treatment period: IBS symptoms, Three months [1]: 32 (44) n (%); Number of months a subject was a responder during the three-month treatment period: IBS symptoms, Two months [1]: 16 (22) n (%); Number of months a subject was a responder during the three-month treatment period: IBS symptoms, Zero months [1]: 17 (24) n (%); Number of subjects who were responders during the three-month treatment period: Adequate relief of IBS symptoms [2]: 44 (61) n (%); Number of subjects who were responders during the three-month treatment period: Adequate relief of abdominal pain/discomfort [2]: 44 (61) n (%); Number of subjects who were responders during the three-month treatment period: Adequate relief of abnormal bowel habits [2]: 43 (60) n (%); Number of months a subject was a responder during the three-month treatment period: Abdominal pain/discomfort, One month [3]: 15 (11) n (%); Number of months a subject was a responder during the three-month treatment period: Abdominal pain/discomfort, Three months [3]: 61 (46) n (%); Number of months a subject was a responder during the three-month treatment period: Abdominal pain/discomfort, Two months [3]: 23 (17) n (%); Number of months a subject was a responder during the three-month treatment period: Abdominal pain/discomfort, Zero months [3]: 34 (26) n (%); Number of months a subject was a responder during the three-month treatment period: Abnormal bowel habits, One month [3]: 15 (11) n (%); Number of months a subject was a responder during the three-month treatment period: Abnormal bowel habits, Three months [3]: 50 (38) n (%); Number of months a subject was a responder during the three-month treatment period: Abnormal bowel habits, Two months [3]: 29 (22) n (%); Number of months a subject was a responder during the three-month treatment period: Abnormal bowel habits, Zero months [3]: 39 (29) n (%); Number of months a subject was a responder during the three-month treatment period: IBS symptoms, One month [3]: 19 (14) n (%); Number of months a subject was a responder during the three-month treatment period: IBS symptoms, Three months [3]: 50 (38) n (%); Number of months a subject was a responder during the three-month treatment period: IBS symptoms, Two months [3]: 26 (20) n (%); Number of months a subject was a responder during the three-month treatment period: IBS symptoms, Zero months [3]: 38 (29) n (%); Number of subjects who were responders during the three-month treatment period: Adequate relief of IBS symptoms [4]: 69 (52) n (%); Number of subjects who were responders during the three-month treatment period: Adequate relief of abdominal pain/discomfort [4]: 79 (59) n (%); Number of subjects who were responders during the three-month treatment period: Adequate relief of abnormal bowel habits [4]: 69 (52) n (%); Number of months a subject was a responder during the three-month treatment period: Abdominal paint/discomfort, One month [5]: 13 (13) n (%); Number of months a subject was a responder during the three-month treatment period: Abdominal paint/discomfort, Three months [5]: 39 (38) n (%); Number of months a subject was a responder during the three-month treatment period: Abdominal paint/discomfort, Two months [5]: 18 (18) n (%); Number of months a subject was a responder during the three-month treatment period: Abdominal paint/discomfort, Zero months [5]: 32 (31) n (%); Number of months a subject was a responder during the three-month treatment period: Abnormal bowel habits, One month [5]: 17 (17) n (%); Number of months a subject was a responder during the three-month treatment period: Abnormal bowel habits, Three months [5]: 37 (36) n (%); Number of months a subject was a responder during the three-month treatment period: Abnormal bowel habits, Two months [5]: 12 (12) n (%); Number of months a subject was a responder during the three-month treatment period: Abnormal bowel habits, Zero months [5]: 36 (35) n (%); Number of months a subject was a responder during the three-month treatment period: IBS symptoms, One month [5]: 17 (17) n (%); Number of months a subject was a responder during the three-month treatment period: IBS symptoms, Three months [5]: 38 (37) n (%); Number of months a subject was a responder during the three-month treatment period: IBS symptoms, Two months [5]: 12 (12) n (%); Number of months a subject was a responder during the three-month treatment period: IBS symptoms, Zero months [5]: 35 (34) n (%); Number of subjects who were responders during the three-month treatment period: Adequate relief of IBS symptoms (Duration of IBS: >120 months): 48 (47) n (%); Number of subjects who were responders during the three-month treatment period: Adequate relief of abdominal pain/discomfort (Duration of IBS: >120 months): 55 (54) n (%); Number of subjects who were responders during the three-month treatment period: Adequate relief of abnormal bowel habits (Duration of IBS: >120 months): 46 (45) n (%); Number of months a subject was a responder during the three-month treatment period: Abdominal pain/discomfort, One month [6]: 7 (10) n (%); Number of months a subject was a responder during the three-month treatment period: Abdominal pain/discomfort, Three months [6]: 27 (39) n (%); Number of months a subject was a responder during the three-month treatment period: Abdominal pain/discomfort, Two months [6]: 16 (23) n (%); Number of months a subject was a responder during the three-month treatment period: Abdominal pain/discomfort, Zero months [6]: 20 (29) n (%); Number of months a subject was a responder during the three-month treatment period: Abnormal bowel habits, One month [6]: 8 (11) n (%); Number of months a subject was a responder during the three-month treatment period: Abnormal bowel habits, Three months [6]: 30 (43) n (%); Number of months a subject was a responder during the three-month treatment period: Abnormal bowel habits, Two months [6]: 15 (21) n (%); Number of months a subject was a responder during the three-month treatment period: Abnormal bowel habits, Zero months [6]: 17 (24) n (%); Number of months a subject was a responder during the three-month treatment period: IBS symptoms, One month [6]: 11 (16) n (%); Number of months a subject was a responder during the three-month treatment period: IBS symptoms, Three months [6]: 28 (40) n (%); Number of months a subject was a responder during the three-month treatment period: IBS symptoms, Two months [6]: 16 (23) n (%); Number of months a subject was a responder during the three-month treatment period: IBS symptoms, Zero months [6]: 15 (21) n (%); Number of subjects who were responders during the three-month treatment period: Adequate relief of IBS symptoms (Duration of IBS: ≦24 months): 45 (64) n (%); Number of subjects who were responders during the three-month treatment period: Adequate relief of abdominal pain/discomfort (Duration of IBS: ≦24 months): 43 (61) n (%); Number of subjects who were responders during the three-month treatment period: Adequate relief of abnormal bowel habits (Duration of IBS: ≦24 months): 45 (64) n (%); Number of months a subject was a responder: One month (Abdominal pain/discomfort) [7]: 30 (11) n (%); Number of months a subject was a responder: One month (Abnormal bowel habits) [7]: 34 (13) n (%); Number of months a subject was a responder: One month (IBS symptoms) [7]: 35 (13) n (%); Number of months a subject was a responder: Three months (Abdominal pain/discomfort) [7]: 101 (39) n (%)

Source: patent publication US20090176817A1, “Method of Treatment of Diarrhea-Predominant Irritable Bowel Syndrome in a Subject” (priority 2005, published 2009)
